The source of these data is ChEMBL document CHEMBL1148696, “Synthesis, characterization, cytotoxicity, antibacterial and antifungal evaluation of some new platinum (IV) and palladium (II) complexes of thiodiamines” (2007).

Assay [1] has as its system Aspergillus flavus. The assay can be described thus: Antifungal activity against Aspergillus flavus after 48 hrs by micro-broth dilution method. Type of assay: functional.
The test system of assay [2] is Aspergillus niger. The assay can be described thus: Antifungal activity against Aspergillus niger after 48 hrs by micro-broth dilution method. Type of assay: functional.
Assay [3] concerns Aspergillus niger. Description: Antifungal activity against Aspergillus niger after 10 hrs by spore germination inhibition assay. Type of assay: functional.
The test system of assay [4] is Aspergillus fumigatus. The assay can be described thus: Antifungal activity against Aspergillus fumigatus after 10 hrs by spore germination inhibition assay. Type of assay: functional.
Assay [5] has as its system Aspergillus flavus. Description: Antifungal activity against Aspergillus flavus after 10 hrs by spore germination inhibition assay. Type of assay: functional.
Assay [6] concerns Aspergillus fumigatus. The assay can be described thus: Antifungal activity against Aspergillus fumigatus after 48 hrs by micro-broth dilution method. Type of assay: functional.
For assay [7], the system named is Escherichia coli. The assay can be described thus: Antibacterial activity against Escherichia coli after 18 hrs by disk diffusion method. Type of assay: functional, organism-based.
In assay [8] the test system is Escherichia coli. The assay can be described thus: Antibacterial activity against Escherichia coli by micro dilution method. Type of assay: functional, organism-based.

≈ marks a conversion by molar mass, not a printed value.

Consider `C[C@@H]1[C@H](O)[C@@H](C)/C=C/C=C/C=C/C=C/C=C/C=C/C=C/[C@H](O[C@@H]2O[C@H](C)[C@@H](O)[C@H](N)[C@@H]2O)C[C@@H]2O[C@](O)(C[C@@H](O)C[C@@H](O)[C@H](O)CC[C@@H](O)C[C@@H](O)CC(=O)O[C@H]1C)C[C@H](O)[C@H]2C(=O)O` [AMPHOTERICIN B], for which the MIC in assay [1], in assay [2], in assay [3], in assay [4], in assay [5] and in assay [6] was 5 mg/L (≈ 5.41 µM) throughout.
On to GENTAMICIN, for which the inhibition zone (IZ) in assay [7] came out at 16 mm. In assay [8], this compound yielded an MIC of 1 µg.
